For this assay, the system named is EGFR (Del19/T790M/C797S). The assay is described as follows: Cell degradation HTRF assay, H1975-clone #28 cells. Format: cell-based. Conditions: H1975-clone #28 (Del19/T790M/C797S) cells, 16 h treatment; for DC50: HTRF, read-out: H1975-clone#28 DTC DC50; for H1975-clone#28 DTC Dmax (%): maximum percentage of degradation. On the procedure:
Cell Degradation of Example 124-189
H1975-#28 and H1975-#25 cells are treated with compounds diluted in 0.2% DMSO cell culture medium on day 2, incubate for 16 h, 37° C., 5% CO2. the final concentration of compounds in all assay is start with 10 uM, 5-fold dilution, total 8 doses were included.
After 16 h treatment, add HTRF lysis buffer to each well; seal the plate and incubate 1 hour at room temperature on a plate shaker; Once the cells are lysed, 16 μL of cell lysate are transferred to a PE 384-well HTRF detection plate; 4 μL of pre-mixed HTRF antibodies are added to each well; Cover the plate with a plate sealer, spin 1000 rpm for 1 min, Incubate overnight at room temperature; Read on BMG PheraStar with HTRF protocol (337 nm-665 nm-620 nm).
The inhibition (degradation) percentage of the compound was calculated by the following equation:
Inhibition percentage of Compound=100−100×(Signal−low control)/(High control−low control), wherein signal=each test compound group.
High control=Cell group with added DMSO and without compound, indicating microplate readings without EGFR degradation;
Dmax is the maximum percentage of inhibition (degradation).
The IC50 (DC50) value of a compound can be obtained by fitting the following equation
Y=Bottom+(TOP−Bottom)/(1+((IC50/X)^hillslope))
Wherein, X and Y are known values, and IC50, Hillslope, Top and Bottom are the parameters obtained by fitting with software. Y is the inhibition percentage (calculated from the equation), X is the concentration of the compound; IC50 is the concentration of the compound when the 50% inhibition is reached. The smaller the IC50 value is, the stronger the inhibitory ability of the compound is. Vice versa, the higher the IC50 value is, the weaker the ability the inhibitory ability of the compound is; Hillslope represents the slope of the fitted curve, generally around 1*; Bottom represents the minimum value of the curve obtained by data fitting, which is generally 0%±20%; Top represents the maximum value of the curve obtained by data fitting, which is generally 100%±20%. The experimental data were fitted by calculating and analyzing with Dotmatics data analysis software. When Dmax<50%, DC50 will be automatically assigned as larger than […].

With `CCc1cc(Nc2ncc(Br)c(Nc3cnc4cc(F)ccc4c3P(C)(C)=O)n2)c(OC)cc1N1CCC(N2CCN(CCc3cc(F)c4c(c3)oc(=O)n4[C@H]3CCC(=O)NC3=O)CC2)CC1` [Example 151, (S)-3-(6-(2-(4-(1-(4-((5-bromo-4-((4-(dimethylphosphoryl)-7-fluoroquinolin-3-yl)amino)pyrimidin-2-yl)amino)-2-ethyl-5-methoxyphenyl)piperidin-4-yl)piperazin-1-yl)ethyl)-4-fluoro-2-oxobenzo[d]oxazol-3(2H)-yl)piperidine-2,6-dione], the DC50 came out at 1.1 nM and the “H1975-clone#28 DTC Dmax (%)” value is on record as 79%.
On the same counts, the results for `CCc1cc(Nc2ncc(Br)c(Nc3cnc4ccccc4c3P(C)(C)=O)n2)c(OCC(F)(F)F)cc1N1CCC(N2CCN(CCC3CCN(c4cc(F)c(C5CCC(=O)NC5=O)c(F)c4)CC3)CC2)CC1` (stereo not shown) [Example 186, 3-(4-(4-(2-(4-(1-(4-((5-bromo-4-((4-(dimethylphosphoryl)quinolin-3-yl)amino)pyrimidin-2-yl)amino)-2-ethyl-5-(2,2,2-trifluoroethoxy)phenyl)piperidin-4-yl)piperazin-1-yl)ethyl)piperidin-1-yl)-2,6-difluorophenyl)piperidine-2,6-dione] are 8 nM and 72%.
In the same order, the values of `CCc1cc(Nc2ncc(Br)c(Nc3cnc4ccccc4c3P(C)(C)=O)n2)c(OC)cc1N1CCC(N2CCN(C(=O)C3CN(c4cccc5c4C(C)(C)C(=O)N5C4CCC(=O)NC4=O)C3)CC2)CC1` (stereo not shown) [Example 169, 3-(4-(3-(4-(1-(4-((5-bromo-4-((4-(dimethylphosphoryl)quinolin-3-yl)amino)pyrimidin-2-yl)amino)-2-ethyl-5-methoxyphenyl)piperidin-4-yl)piperazine-1-carbonyl)azetidin-1-yl)-3,3-dimethyl-2-oxoindolin-1-yl)piperidine-2,6-dione] are 4.6 nM and 65%.
Consider `CCc1cc(Nc2ncc(Br)c(Nc3cnc4c(F)cccc4c3P(C)(C)=O)n2)c(OC)cc1N1CCC(N2CCN(C(=O)C3CCN(c4ccc5c(c4)C(C)(C)C(=O)N5C4CCC(=O)NC4=O)CC3)CC2)CC1` (stereo not shown) [Example 182, 3-(5-(4-(4-(1-(4-((5-bromo-4-((4-(dimethylphosphoryl)-8-fluoroquinolin-3-yl)amino)pyrimidin-2-yl)amino)-2-ethyl-5-methoxyphenyl)piperidin-4-yl)piperazine-1-carbonyl)piperidin-1-yl)-3,3-dimethyl-2-oxoindolin-1-yl)piperidine-2,6-dione], for which the DC50 is 0.8 nM and the “H1975-clone#28 DTC Dmax (%)” value is on record as 56%.
With `CCc1cc(Nc2ncc(Br)c(Nc3cnc4ccccc4c3P(C)(C)=O)n2)c(OC)cc1N1CCC(N2CCN(CCc3cc(F)c(C4CCC(=O)NC4=O)c(F)c3F)CC2)CC1` (stereo not shown) [Example 180, 3-(4-(2-(4-(1-(4-((5-bromo-4-((4-(dimethylphosphoryl)quinolin-3-yl)amino)pyrimidin-2-yl)amino)-2-ethyl-5-methoxyphenyl)piperidin-4-yl)piperazin-1-yl)ethyl)-2,3,6-trifluorophenyl)piperidine-2,6-dione], the DC50 is 2 nM and the “H1975-clone#28 DTC Dmax (%)” value is reported as 83%.
Consider `CCOc1cc(N2CCC(N3CCN(CCc4ccc5c(c4)oc(=O)n5C4CCC(=O)NC4=O)CC3)CC2)c(CC)cc1Nc1ncc(Br)c(Nc2cnc3ccccc3c2P(C)(C)=O)n1` (stereo not shown) [Example 139, 3-(6-(2-(4-(1-(4-((5-bromo-4-((4-(dimethylphosphoryl)quinolin-3-yl)amino)pyrimidin-2-yl)amino)-5-ethoxy-2-ethylphenyl)piperidin-4-yl)piperazin-1-yl)ethyl)-2-oxobenzo[d]oxazol-3(2H)-yl)piperidine-2,6-dione], for which the DC50 was determined as 1.5 nM and the “H1975-clone#28 DTC Dmax (%)” value is 75%.
As for `CCc1cc(Nc2ncc(Br)c(Nc3cnc4cc(F)ccc4c3P(C)(C)=O)n2)c(OC)cc1N1CCC(N2CCN(CCc3cccc4c3n(C)c(=O)n4C3CCC(=O)NC3=O)CC2)CC1` (stereo not shown) [Example 167, 3-(4-(2-(4-(1-(4-((5-bromo-4-((4-(dimethylphosphoryl)-7-fluoroquinolin-3-yl)amino)pyrimidin-2-yl)amino)-2-ethyl-5-methoxyphenyl)piperidin-4-yl)piperazin-1-yl)ethyl)-3-methyl-2-oxo-2,3-dihydro-1H-benzo[d]imidazol-1-yl)piperidine-2,6-dione], the DC50 is 0.8 nM and the “H1975-clone#28 DTC Dmax (%)” value came out at 74%.
Turning to `CCc1cc(Nc2ncc(Br)c(Nc3cnc4ccccc4c3P(C)(C)=O)n2)c(OC)cc1N1CCC(N2CCN(CCc3cccc4c3C(C)(C)C(=O)N4C3CCC(=O)NC3=O)CC2)CC1` (stereo not shown) [Example 164, 3-(4-(2-(4-(1-(4-((5-bromo-4-((4-(dimethylphosphoryl)quinolin-3-yl)amino)pyrimidin-2-yl)amino)-2-ethyl-5-methoxyphenyl)piperidin-4-yl)piperazin-1-yl)ethyl)-3,3-dimethyl-2-oxoindolin-1-yl)piperidine-2,6-dione], the DC50 turned out to be 2.1 nM and the “H1975-clone#28 DTC Dmax (%)” value is given as 81%.
Consider `CCOc1cc(N2CCC(N3CCN(CCc4ccc5c(c4)oc(=O)n5C4CCC(=O)NC4=O)CC3)CC2)c(CC)cc1Nc1ncc(Br)c(Nc2cnc3cc(F)ccc3c2P(C)(C)=O)n1` (stereo not shown) [Example 149, 3-(6-(2-(4-(1-(4-((5-bromo-4-((4-(dimethylphosphoryl)-7-fluoroquinolin-3-yl)amino)pyrimidin-2-yl)amino)-5-ethoxy-2-ethylphenyl)piperidin-4-yl)piperazin-1-yl)ethyl)-2-oxobenzo[d]oxazol-3(2H)-yl)piperidine-2,6-dione], for which the DC50 was 1.3 nM and the “H1975-clone#28 DTC Dmax (%)” value was 73%.
In the same order, the values of `CCc1cc(Nc2ncc(Br)c(Nc3cnc4cc(F)ccc4c3P(C)(C)=O)n2)c(OC)cc1N1CCC(N2CCN(CCc3cc(F)c(C4CCC(=O)NC4=O)c(F)c3)CC2)CC1` (stereo not shown) [Example 172, 3-(4-(2-(4-(1-(4-((5-bromo-4-((4-(dimethylphosphoryl)-7-fluoroquinolin-3-yl)amino)pyrimidin-2-yl)amino)-2-ethyl-5-methoxyphenyl)piperidin-4-yl)piperazin-1-yl)ethyl)-2,6-difluorophenyl)piperidine-2,6-dione] are 1.4 nM and 81%.
With `CCOc1cc(N2CCC(N3CCN(CCc4cccc5c4C(C)(C)C(=O)N5C4CCC(=O)NC4=O)CC3)CC2)c(CC)cc1Nc1ncc(Br)c(Nc2cnc3ccccc3c2P(C)(C)=O)n1` (stereo not shown) [Example 138, 3-(4-(2-(4-(1-(4-((5-bromo-4-((4-(dimethylphosphoryl)quinolin-3-yl)amino)pyrimidin-2-yl)amino)-5-ethoxy-2-ethylphenyl)piperidin-4-yl)piperazin-1-yl)ethyl)-3,3-dimethyl-2-oxoindolin-1-yl)piperidine-2,6-dione], the DC50 is 3 nM and the “H1975-clone#28 DTC Dmax (%)” value worked out at 83%.
In the case of `CCc1cc(Nc2ncc(Br)c(Nc3cnc4ccccc4c3P(C)(C)=O)n2)c(OC)cc1N1CCC(N2CCN(C(=O)C3CCN(c4cc(F)c(C5CCC(=O)NC5=O)c(F)c4)CC3)CC2)CC1` (stereo not shown) [Example 185, 3-(4-(4-(4-(1-(4-((5-bromo-4-((4-(dimethylphosphoryl)quinolin-3-yl)amino)pyrimidin-2-yl)amino)-2-ethyl-5-methoxyphenyl)piperidin-4-yl)piperazine-1-carbonyl)piperidin-1-yl)-2,6-difluorophenyl)piperidine-2,6-dione], the 50% degradation concentration (DC50) amounted to 1.2 nM and the “H1975-clone#28 DTC Dmax (%)” value worked out at 71%.
Regarding `CCc1cc(Nc2ncc(Br)c(Nc3cnc4c(F)c(F)ccc4c3P(C)(C)=O)n2)c(OC)cc1N1CCC(N2CCN(CCc3cc(F)c(C4CCC(=O)NC4=O)c(F)c3)CC2)CC1` (stereo not shown) [Example 173, 3-(4-(2-(4-(1-(4-((5-bromo-4-((4-(dimethylphosphoryl)-7,8-difluoroquinolin-3-yl)amino)pyrimidin-2-yl)amino)-2-ethyl-5-methoxyphenyl)piperidin-4-yl)piperazin-1-yl)ethyl)-2,6-difluorophenyl)piperidine-2,6-dione], the DC50 turned out to be 2.7 nM and the “H1975-clone#28 DTC Dmax (%)” value is 82%.
Take `CCc1cc(Nc2ncc(Br)c(Nc3cnc4ccccc4c3P(C)(C)=O)n2)c(OC)cc1N1CCC(N2CCN(CCc3ccc4c(c3)C(C)(C)C(=O)N4C3CCC(=O)NC3=O)CC2)CC1` (stereo not shown) [Example 175, 3-(5-(2-(4-(1-(4-((5-bromo-4-((4-(dimethylphosphoryl)quinolin-3-yl)amino)pyrimidin-2-yl)amino)-2-ethyl-5-methoxyphenyl)piperidin-4-yl)piperazin-1-yl)ethyl)-3,3-dimethyl-2-oxoindolin-1-yl)piperidine-2,6-dione]: the DC50 turned out to be 5.5 nM and the “H1975-clone#28 DTC Dmax (%)” value is on record as 47%.

Source of the values: patent publication US20240165243A1, “EGFR DEGRADERS AND METHODS OF USE” (BeiGene Switzerland GmbH, priority 2021, published 2024).
